PubChem BioAssay AID1845217 (Molecular Pharmacology Branch, DTP, NCI, 2023)
Where “and” joins values, the source holds several entries; their conditions need not be identical. Identical values can stand only once.

Test system: VA-ES-BJ tumor spheroid viability
Assay: Anticancer human tumor VA-ES-BJ cell line growth inhibition;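 further: spheroids exposed to compounds for seven days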;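 on viability, T/C: percent of DMSO vehicle control viability so 100% = untreated growth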
Settings: spheroids with HUVEC and MSC; for viability, T/C: stronger effect = lower value
In short: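 Single agents and combinations were tested on spheroids built from tumor cells plus HUVEC and hMSC, at half-log dilutions starting at or near clinical Cmax, else 10 microM; final DMSO 0.25% (v/v).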

[1] = curve of first compound, second compound 0.003 µM

Molecule Cc1sc2c(c1C)C(c1ccc(Cl)cc1)=NC(CC(=O)Nc1ccc(O)cc1)c1nnc(C)n1-2 (configuration not stated) + COc1cc2c(cc1O)CCNC21CSC2c3c(OC(C)=O)c(C)c4c(c3C(COC1=O)N1C(O)C3Cc5cc(C)c(OC)c(O)c5C(C21)N3C)OCO4 has an IC50 (curve of first compound, second compound 30 pM) of 78 nM, an IC50 (curve of first compound, second compound 94.9 pM) of 58.6 nM and an IC50 (curve of first compound, second compound 0.0003 µM) of under 9.49 nM. It also gave an IC50 (curve of first compound, second compound 0.000949 µM) of under 9.49 nM, an IC50 [1] of under 9.49 nM and a viability, T/C (second compound 30 pM, first compound 0.00949 µM) of 83.6%. The viability, T/C (second compound 30 pM, first compound 0.03 µM) was 65.8%, the viability, T/C (second compound 30 pM, first compound 0.0949 µM) was 48.9% and the viability, T/C (second compound 30 pM, first compound 0.3 µM) was 27.4%. It also gave a viability, T/C (second compound 30 pM, first compound 0.949 µM) of 24%, a viability, T/C (second compound 30 pM, first compound 3 µM) of 17.5% and a viability, T/C (second compound 94.9 pM, first compound 0.00949 µM) of 79.4%. It also gave a viability, T/C (second compound 94.9 pM, first compound 0.03 µM) of 60.9%, a viability, T/C (second compound 94.9 pM, first compound 0.0949 µM) of 42.3% and a viability, T/C (second compound 94.9 pM, first compound 0.3 µM) of 27.3%. It also gave a viability, T/C (second compound 94.9 pM, first compound 0.949 µM) of 21.3%, a viability, T/C (second compound 94.9 pM, first compound 3 µM) of 10.5% and a viability, T/C (second compound 0.0003 µM, first compound 0.00949 µM) of 38.7%. It also gave a viability, T/C (second compound 0.0003 µM, first compound 0.03 µM) of 32.4%, a viability, T/C (second compound 0.0003 µM, first compound 0.0949 µM) of 23.7% and a viability, T/C (second compound 0.0003 µM, first compound 0.3 µM) of 13.7%. The viability, T/C (second compound 0.0003 µM, first compound 0.949 µM) was 6.9%, the viability, T/C (second compound 0.0003 µM, first compound 3 µM) was 2.06% and the viability, T/C (second compound 0.000949 µM, first compound 0.00949 µM) was 8.09%. It also gave a viability, T/C (second compound 0.000949 µM, first compound 0.03 µM) of 2.88%, a viability, T/C (second compound 0.000949 µM, first compound 0.0949 µM) of 5.43% and a viability, T/C (second compound 0.000949 µM, first compound 0.3 µM) of 1.01%. For the same molecule, the viability, T/C (second compound 0.000949 µM, first compound 0.949 µM) was 0.08%, the viability, T/C (second compound 0.000949 µM, first compound 3 µM) was 0.14% and the viability, T/C (second compound 0.003 µM, first compound 0.00949 µM) was 1.18%. The viability, T/C (second compound 0.003 µM, first compound 0.03 µM) was 1.31%, the viability, T/C (second compound 0.003 µM, first compound 0.0949 µM) was 1.36% and the viability, T/C (second compound 0.003 µM, first compound 0.3 µM) was 1.87%. For the same molecule, the viability, T/C (second compound 0.003 µM, first compound 0.949 µM) was 2.19% and the viability, T/C (second compound 0.003 µM, first compound 3 µM) was 3.69%.
Cc1cc(C)c(CNC(=O)c2cc(-c3ccc(CN4CCOCC4)cc3)cc3c2cnn3C2CCCC2)c(=O)[nH]1 was tested, and the viability, T/C (compound 0.0316 µM) was 101% and 98% and 103%, the viability, T/C (compound 0.1 µM) was 100% and 106% and 101% and the viability, T/C (compound 0.316 µM) was 98.5% and 97.2% and 99.1%. The viability, T/C (compound 1 µM) was 103% (2×) and 100%, the viability, T/C (compound 3.16 µM) was 102% and 107% and 112% and the viability, T/C (compound 10 µM) was 91.8% and 91.9% and 104%. The IC50 (curve of compound) was over 10000 nM.
CC(C)n1c(=O)n(C)c2cnc3cc(F)c(-c4ccc(OCCCN5CCCCC5)nc4)cc3c21 + CC[C@@]1(O)C(=O)OCc2c1cc1n(c2=O)Cc2cc3c(CN(C)C)c(O)ccc3nc2-1 showed an IC50 [1] of 3970 nM, an IC50 (curve of first compound, second compound 0.00949 µM) of under 31.6 nM and an IC50 (curve of first compound, second compound 0.03 µM) of under 31.6 nM. It also gave an IC50 (curve of first compound, second compound 0.0949 µM) of under 31.6 nM, an IC50 (curve of first compound, second compound 0.3 µM) of under 31.6 nM and a viability, T/C (second compound 0.003 µM, first compound 0.0316 µM) of 82.7%. It also gave a viability, T/C (second compound 0.003 µM, first compound 0.1 µM) of 76%, a viability, T/C (second compound 0.003 µM, first compound 0.316 µM) of 80% and a viability, T/C (second compound 0.003 µM, first compound 1 µM) of 77.3%. For the same molecule, the viability, T/C (second compound 0.003 µM, first compound 3.16 µM) was 54.7%, the viability, T/C (second compound 0.003 µM, first compound 10 µM) was 30.8% and the viability, T/C (second compound 0.00949 µM, first compound 0.0316 µM) was 50.8%. For the same molecule, the viability, T/C (second compound 0.00949 µM, first compound 0.1 µM) was 46.3%, the viability, T/C (second compound 0.00949 µM, first compound 0.316 µM) was 45.3% and the viability, T/C (second compound 0.00949 µM, first compound 1 µM) was 44.5%. It also gave a viability, T/C (second compound 0.00949 µM, first compound 3.16 µM) of 37.3%, a viability, T/C (second compound 0.00949 µM, first compound 10 µM) of 20.5% and a viability, T/C (second compound 0.03 µM, first compound 0.0316 µM) of 30.3%. It also gave a viability, T/C (second compound 0.03 µM, first compound 0.1 µM) of 27.4%, a viability, T/C (second compound 0.03 µM, first compound 0.316 µM) of 31.4% and a viability, T/C (second compound 0.03 µM, first compound 1 µM) of 26.9%. For the same molecule, the viability, T/C (second compound 0.03 µM, first compound 3.16 µM) was 27.5%, the viability, T/C (second compound 0.03 µM, first compound 10 µM) was 11.9% and the viability, T/C (second compound 0.0949 µM, first compound 0.0316 µM) was 6.85%. The viability, T/C (second compound 0.0949 µM, first compound 0.1 µM) was 6.85%, the viability, T/C (second compound 0.0949 µM, first compound 0.316 µM) was 7.33% and the viability, T/C (second compound 0.0949 µM, first compound 1 µM) was 7.9%. For the same molecule, the viability, T/C (second compound 0.0949 µM, first compound 3.16 µM) was 8.2%, the viability, T/C (second compound 0.0949 µM, first compound 10 µM) was 7.69% and the viability, T/C (second compound 0.3 µM, first compound 0.0316 µM) was 4.4%. The viability, T/C (second compound 0.3 µM, first compound 0.1 µM) was 4.06%, the viability, T/C (second compound 0.3 µM, first compound 0.316 µM) was 3.67% and the viability, T/C (second compound 0.3 µM, first compound 1 µM) was 3.49%. It also gave a viability, T/C (second compound 0.3 µM, first compound 3.16 µM) of 3.07% and a viability, T/C (second compound 0.3 µM, first compound 10 µM) of 2.74%.
